Data on 30 molecules can be found in patent US20240400555A1 (Initial Therapeutics, Inc., priority 2023, published 2024).

By IC50 is commonly meant the concentration that inhibits the measured activity by half.

Molecules are shown by their SMILES.

The subject of one assay is MV-4-11 cells. As to the kind of experiment: Cell Viability Assay in MV-4-11 Cells. Type of assay: cell-based. The settings on record: Homo sapiens, MV4-11, 72 h. The method, boiled down: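 MV-4-11 cells at 7,000/well in IMDM with 10% FBS, exposed to compound for 72 h. Viability by CellTiter-Glo luminescence, normalized to DMSO as 100%, fitted with a four-parameter curve.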
As to `Cn1cc(-c2ccc(C(=O)N(c3nccc4sc(C(=O)Nc5ccncc5)cc34)[C@@H]3CCCNC3)c(F)c2)nn1` [Example 813, (R)-4-(2-fluoro-4-(1-methyl-1H-1,2,3-triazol-4-yl)-N-(piperidin-3-yl)benzamido)-N-(pyridin-4-yl)thieno[3,2-c]pyridine-2-carboxamide], the IC50 is 550 nM.

The same assay, now with this note: Homo sapiens, MV4-11, 72 h, MV-4-11 cells, 72 h, Cell-Titer Glo; read-out: IC50.
Regarding `Cn1cc(-c2ccc(C(=O)N(c3nccc4cc(F)ccc34)[C@@H]3CCCNC3)cc2)nn1` [Example 805, (R)—N-(6-fluoroisoquinolin-1-yl)-4-(1-methyl-1H-1,2,3-triazol-4-yl)-N-(piperidin-3-yl)benzamide], the IC50 came to 820 nM. `O=C(c1ccc(-c2cccnn2)cn1)N(c1nccc2cc(Cl)ccc12)[C@@H]1CCCNC1` [Example 806, N-(6-chloro-1-isoquinolyl)-N-[(3R)-3-piperidyl]-5-pyridazin-3-yl-pyridine-2-carboxamide]: the IC50 came to 680 nM. On the same count and under the same terms, under `Cn1cc(-c2ccc(C(=O)N(c3nccc4cc(Cl)ccc34)[C@@H]3CCCNC3)cc2)nn1` [Example 808, (R)—N-(6-chloroisoquinolin-1-yl)-4-(1-methyl-1H-1,2,3-triazol-4-yl)-N-(piperidin-3-yl)benzamide] stands 420 nM; under `Cc1cccc2ccnc(N(C(=O)c3ccc(-c4cn(C)nn4)cn3)[C@@H]3CCCNC3)c12` [Example 809, (R)-5-(1-methyl-1H-1,2,3-triazol-4-yl)-N-(8-methylisoquinolin-1-yl)-N-(piperidin-3-yl)picolinamide], 200 nM.

For the molecule `Cc1nnc(-c2ccc(C(=O)N(c3nccc4scc(C)c34)[C@@H]3CCCNC3)nc2)s1` [Example 810, (R)-5-(5-methyl-1,3,4-thiadiazol-2-yl)-N-(3-methylthieno[3,2-c]pyridin-4-yl)-N-(piperidin-3-yl)picolinamide], the IC50 came out at 170 nM. Same read-out and setting: to `Cc1csc2ccnc(N(C(=O)c3ccc(-c4cn(C)nn4)cn3)[C@@H]3CCCNC3)c12` [Example 811, (R)-5-(1-methyl-1H-1,2,3-triazol-4-yl)-N-(3-methylthieno[3,2-c]pyridin-4-yl)-N-(piperidin-3-yl)picolinamide] belongs 120 nM. Consider `Cc1cc(Cl)cc2ccnc(N(C(=O)c3ccc(-c4cn(C)nn4)cn3)[C@@H]3CCCNC3)c12` [Example 812, (R)—N-(6-chloro-8-methylisoquinolin-1-yl)-5-(1-methyl-1H-1,2,3-triazol-4-yl)-N-(piperidin-3-yl)picolinamide], for which the IC50 is 51 nM. On the same count and under the same terms, to `Cc1cc(Cl)cc2ccnc(N(C(=O)c3ccc(-c4cnn(C)c4C)cc3F)[C@@H]3CCCNC3)c12` [Example 814, (R)—N-(6-chloro-8-methylisoquinolin-1-yl)-4-(1,5-dimethyl-1H-pyrazol-4-yl)-2-fluoro-N-(piperidin-3-yl)benzamide] belongs 430 nM. Same read-out and setting: under `Cc1nnc(-c2ccc(C(=O)N(c3nccc4cc(Cl)cc(C)c34)[C@@H]3CCCNC3)c(F)c2)s1` [Example 815, (R)—N-(6-chloro-8-methylisoquinolin-1-yl)-2-fluoro-4-(5-methyl-1,3,4-thiadiazol-2-yl)-N-(piperidin-3-yl)benzamide] stands 69 nM.

Regarding `Cc1cc(Cl)cc2ccnc(N(C(=O)c3ccc(-c4cn(C)nn4)cc3Cl)[C@@H]3CCCNC3)c12` [Example 816, (R)-2-chloro-N-(6-chloro-8-methylisoquinolin-1-yl)-4-(1-methyl-1H-1,2,3-triazol-4-yl)-N-(piperidin-3-yl)benzamide], the IC50 worked out at 140 nM. The same measure, in the same setting: to `Cc1nnc(-c2ccc(C(=O)N(c3nccc4sc(C#CCCC(N)=O)cc34)[C@@H]3CCCNC3)c(F)c2)s1` [Example 817, N-[2-(5-amino-5-oxo-pent-1-ynyl)thieno[3,2-c]pyridin-4-yl]-2-fluoro-4-(5-methyl-1,3,4-thiadiazol-2-yl)-N-[(3R)-3-piperidyl]benzamide] belongs 3600 nM.

Turning to `Cc1nnc(-c2ccc(C(=O)N(c3nccc4sc(C#CCCO)cc34)[C@@H]3CCCNC3)c(F)c2)s1` [Example 818, (R)-2-fluoro-N-(2-(4-hydroxybut-1-yn-1-yl)thieno[3,2-c]pyridin-4-yl)-4-(5-methyl-1,3,4-thiadiazol-2-yl)-N-(piperidin-3-yl)benzamide], the IC50 is 1300 nM. The same measure, in the same setting: under `Cc1c(-c2ccc(C(=O)N(c3nccc4sc(-c5ccc(C(N)=O)cc5)cc34)[C@@H]3CCCNC3)c(F)c2)nnn1C` [Example 819, N-[2-(4-carbamoylphenyl)thieno[3,2-c]yridine-4-yl]-4-(1,5-dimethyltriazol-4-yl)-2-fluoro-N-[(3R)-3-piperidyl]benzamide] stands 1000 nM; under `Cc1sc2ccnc(N(C(=O)c3ccc(-n4nnc5cccnc54)cc3F)[C@@H]3CCCNC3)c2c1C` [Example 820, (R)-4-(3H-[1,2,3]triazolo[4,5-b]pyridin-3-yl)-N-(2,3-dimethylthieno[3,2-c]pyridin-4-yl)-2-fluoro-N-(piperidin-3-yl)benzamide], 220 nM. In the case of `CCn1cc(-c2ccc(C(=O)N(c3nccc4cccc(C)c34)[C@@H]3CCCNC3)c(F)c2)nn1` [Example 821, (R)-4-(1-ethyl-1H-1,2,3-triazol-4-yl)-2-fluoro-N-(8-methylisoquinolin-1-yl)-N-(piperidin-3-yl)benzamide], the IC50 was 67 nM. Same read-out and setting: to `Cc1cccc2ccnc(N(C(=O)c3ccc(-c4cn(C)nn4)cc3Cl)[C@@H]3CCCNC3)c12` [Example 822, (R)-2-chloro-4-(1-methyl-1H-1,2,3-triazol-4-yl)-N-(8-methylisoquinolin-1-yl)-N-(piperidin-3-yl)benzamide] belongs 390 nM.

In the case of `Cc1cccc2ccnc(N(C(=O)c3ccc(Nc4ncc5ccsc5n4)cc3F)[C@@H]3CCCNC3)c12` [Example 823, (R)-2-fluoro-N-(8-methylisoquinolin-1-yl)-N-(piperidin-3-yl)-4-(thieno[2,3-d]pyrimidin-2-ylamino)benzamide], the IC50 stood at 130 nM.

`Cc1cccc2ccnc(N(C(=O)c3ccc(Nc4ncc5ccccc5n4)cc3F)[C@@H]3CCCNC3)c12` [Example 824, (R)-2-fluoro-N-(8-methylisoquinolin-1-yl)-N-(piperidin-3-yl)-4-(quinazolin-2-ylamino)benzamide]: the IC50 was 130 nM. For the molecule `NC(=O)c1ccc(-c2cc3c(N(C(=O)c4ccc(-c5cnn6c5CCCC6)cc4F)[C@@H]4CCCNC4)nccc3s2)cc1` [Example 825, N-[2-(4-carbamoylphenyl)thieno[3,2-c]pyridin-4-yl]-2-fluoro-N-[(3R)-3-piperidyl]-4-(4,5,6,7-tetrahydropyrazolo[1,5-a]pyridin-3-yl)benzamide], the IC50 is 1000 nM.

With `NC(=O)c1ccc(-c2cc3c(N(C(=O)c4ccc(-n5cnc6ccccc65)cc4F)[C@@H]4CCCNC4)nccc3s2)cc1` [Example 826, 4-(benzimidazol-1-yl)-N-[2-(4-carbamoylphenyl)thieno[3,2-c]pyridin-4-yl]-2-fluoro-N-[(3R)-3-piperidyl]benzamide], the IC50 was 4400 nM. Take `Cc1nnc(-c2ccc(C(=O)N(c3nccc4sc(-c5ccc(C(N)=O)cc5)cc34)[C@@H]3CCCNC3)c(F)c2)s1` [Example 827, N-[2-(4-carbamoylphenyl)thieno[3,2-c]pyridin-4-yl]-2-fluoro-4-(5-methyl-1,3,4-thiadiazol-2-yl)-N-[(3R)-3-piperidyl]benzamide]: the IC50 is 910 nM. On the same count and under the same terms, to `Cn1cc(-c2ccc(C(=O)N(c3nccc4cc(Cc5cccnc5)ccc34)[C@@H]3CCCNC3)c(F)c2)nn1` [Example 828, (R)-2-fluoro-4-(1-methyl-1H-1,2,3-triazol-4-yl)-N-(piperidin-3-yl)-N-(6-(pyridin-3-ylmethyl)isoquinolin-1-yl)benzamide] belongs 1000 nM; to `Cc1cc(F)cc2ccnc(N(C(=O)c3ccc(-c4nnn(C)c4C)cc3F)[C@@H]3CCCNC3)c12` [Example 829, (R)-4-(1,5-dimethyl-1H-1,2,3-triazol-4-yl)-2-fluoro-N-(6-fluoro-8-methylisoquinolin-1-yl)-N-(piperidin-3-yl)benzamide], 130 nM. Consider `Cc1cccc2ccnc(N(C(=O)c3ccc(-c4nnn(C)c4C)cc3F)[C@@H]3CCCNC3)c12` [Example 830, (R)-4-(1,5-dimethyl-1H-1,2,3-triazol-4-yl)-2-fluoro-N-(8-methylisoquinolin-1-yl)-N-(piperidin-3-yl)benzamide], for which the IC50 was 210 nM. In the case of `Cc1sc2ccnc(N(C(=O)c3ccc(-c4cn(C)nn4)cc3F)[C@@H]3CCCNC3)c2c1C` [Example 831, (R)—N-(2,3-dimethylthieno[3,2-c]pyridin-4-yl)-2-fluoro-4-(1-methyl-1H-1,2,3-triazol-4-yl)-N-(piperidin-3-yl)benzamide], the IC50 was 440 nM. Regarding `CCc1nnc(-c2ccc(C(=O)N(c3nccc4cc(F)cc(C)c34)[C@@H]3CCCNC3)c(F)c2)s1` [Example 832, (R)-4-(5-ethyl-1,3,4-thiadiazol-2-yl)-2-fluoro-N-(6-fluoro-8-methylisoquinolin-1-yl)-N-(piperidin-3-yl)benzamide], the IC50 turned out to be 120 nM.

For the molecule `Cc1nnc(-c2ccc(C(=O)N(c3nccc4cc(F)cc(C)c34)[C@@H]3CCCNC3)c(F)c2)s1` [Example 833, (R)-2-fluoro-N-(6-fluoro-8-methylisoquinolin-1-yl)-4-(5-methyl-1,3,4-thiadiazol-2-yl)-N-(piperidin-3-yl)benzamide], the IC50 is 120 nM. Same read-out and setting: under `Cn1cc(-c2ccc(C(=O)N(c3nccc4cc(-c5ccc(CN)cc5)ccc34)[C@@H]3CCCNC3)c(F)c2)nn1` [Example 834, (R)—N-(6-(4-(aminomethyl)phenyl)isoquinolin-1-yl)-2-fluoro-4-(1-methyl-1H-1,2,3-triazol-4-yl)-N-(piperidin-3-yl)benzamide] stands 140 nM; under `Cc1cccc2ccnc(N(C(=O)c3ccc(-c4nnc(C5CC5)s4)cc3F)[C@@H]3CCCNC3)c12` [Example 836, (R)-4-(5-cyclopropyl-1,3,4-thiadiazol-2-yl)-2-fluoro-N-(8-methylisoquinolin-1-yl)-N-(piperidin-3-yl)benzamide], 89 nM.
